In US5061691A, “Enkephalin analogs” (Kabushiki Kaisha Vitamin Kenkyuso, priority 1987, dated 1991):
pIC50: −log10 of the molar value. Like-named read-outs stand apart in the source and are kept apart here. Peptide text beside a SMILES is read from it.

Tests used:
[1] = i.c.v. or i.v. administration; cited from earlier work
mouse vas deferens (MVD) [2] = molecular target: T1, mouse vas deferens (MVD) (Mus musculus, UniProt P32300); format: cell-based
guinea pig ileum (GPI) = guinea pig ileum (GPI) (Cavia porcellus, UniProt P97266); details: value from Shimohigashi et al., Peptide Chemistry 1985 p. 51 (1986); cited from earlier work
mouse vas deferens (MVD) [3] = molecular target: T1, mouse vas deferens (MVD); details: cited from earlier work
μ and δ opiate receptors = details: Lutz et al., Eur. J. Pharmacol. 111, 257 (1985); cited from earlier work

T1 sequence (P32300 whole entry): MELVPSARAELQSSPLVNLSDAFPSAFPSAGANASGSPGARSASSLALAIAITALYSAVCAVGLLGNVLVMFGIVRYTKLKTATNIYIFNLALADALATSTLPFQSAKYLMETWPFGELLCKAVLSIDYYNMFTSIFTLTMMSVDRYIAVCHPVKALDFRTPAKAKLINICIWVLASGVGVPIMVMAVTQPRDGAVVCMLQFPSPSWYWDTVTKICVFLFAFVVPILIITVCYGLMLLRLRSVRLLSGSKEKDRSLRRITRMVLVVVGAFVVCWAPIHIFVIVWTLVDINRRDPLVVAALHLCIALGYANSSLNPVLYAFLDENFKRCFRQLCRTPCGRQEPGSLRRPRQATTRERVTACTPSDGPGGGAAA
guinea pig ileum (GPI), sequence (P97266 whole entry): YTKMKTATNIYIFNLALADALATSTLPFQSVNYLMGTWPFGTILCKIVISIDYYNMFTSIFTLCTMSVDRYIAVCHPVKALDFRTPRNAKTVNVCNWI

In the case of “β -Endorphin: consists of 31 amino acid residues and is a fragment of β -lipotropin (YGGFMTSEKSQTPLVTLFKNAIIKNAYKKGE; Beta-endorphin; UniProt P01189 237-267, looked up)”, the analgesic activity [1] is given as “marked and long-lived analgesic activity”.
In the case of `NC(=O)[C@@H]1CCCN1C(=O)[C@H](Cc1ccccc1)NC(=O)[C@@H]1CCCN1C(=O)[C@@H](N)Cc1ccc(O)cc1` [Morphiceptin, H--Tyr--Pro--Phe--Pro--NH2] (H-YPFP-NH2), the “Activity ratio MVD/GPI” value (mouse vas deferens (MVD) [2]) was 5.7.
For “(H--Tyr--D--Ala--Gly--NH--CH2 --)2 [DTRE2]”, the pIC50 (guinea pig ileum (GPI)) is listed as 6.36, the “opiate activity and selectivity in bioassays (GPI and MVD assays)” value (mouse vas deferens (MVD) [3]; GPI and MVD bioassays, Shimohigashi et al. (1986)) is listed as “morphine-like activities and greater selectivity for μ than for δ” and the “Activity ratio MVD/GPI” value (mouse vas deferens (MVD) [3]; ratio of IC50, from Shimohigashi et al., Peptide Chemistry 1985 p. 51 (1986)) is listed as 6.1. For the same compound, the pIC50 (mouse vas deferens (MVD) [3]; value from Shimohigashi et al., Peptide Chemistry 1985 p. 51 (1986)) was 5.57 and the “selectivity for μ than for δ in receptor binding assay” value (μ and δ opiate receptors) was “about 400 fold”.
